Test results from patent US11793420B2, “Ingestible device for delivery of a dispensable substance” (Biora Therapeutics, Inc., priority 2016, dated 2023).

Target: Human TNFα (Homo sapiens, UniProt P01375)
Assay: AlphaLISA competitive inhibition assay of drug recovered from bellows or syringe

Sequence of Human TNFα (P01375 77-233 limits assumed): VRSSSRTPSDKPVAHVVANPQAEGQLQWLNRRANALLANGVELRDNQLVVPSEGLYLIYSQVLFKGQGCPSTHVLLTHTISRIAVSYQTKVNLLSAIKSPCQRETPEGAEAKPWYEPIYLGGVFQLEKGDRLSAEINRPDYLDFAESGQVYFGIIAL

shift of bellows curves (after 24 hours (FIG. 86), within the error bars): slight right shift
IC50 values of the drug dispensed from the bellows versus standard dispensation method (bellows vs. standard dispensation method (Table 6)): comparable
Substance: adalimumab [Exemptia]
impact of bellows on drug function (silicone or PVC bellows, shelf lives of 4, 24 hours, or 336 hours): do not negatively impact the drug function
